Patent EP1371368A1, “Salvianolic acid components as lipase inhibitors” (N.V. Nutricia, priority 2002, dated 2003)

Target: T1, porcine pancreas lipase (Sus scrofa, UniProt P00591)
T1 construct: purchased ICN Biomedicals BV
T1 sequence (P00591 1-450): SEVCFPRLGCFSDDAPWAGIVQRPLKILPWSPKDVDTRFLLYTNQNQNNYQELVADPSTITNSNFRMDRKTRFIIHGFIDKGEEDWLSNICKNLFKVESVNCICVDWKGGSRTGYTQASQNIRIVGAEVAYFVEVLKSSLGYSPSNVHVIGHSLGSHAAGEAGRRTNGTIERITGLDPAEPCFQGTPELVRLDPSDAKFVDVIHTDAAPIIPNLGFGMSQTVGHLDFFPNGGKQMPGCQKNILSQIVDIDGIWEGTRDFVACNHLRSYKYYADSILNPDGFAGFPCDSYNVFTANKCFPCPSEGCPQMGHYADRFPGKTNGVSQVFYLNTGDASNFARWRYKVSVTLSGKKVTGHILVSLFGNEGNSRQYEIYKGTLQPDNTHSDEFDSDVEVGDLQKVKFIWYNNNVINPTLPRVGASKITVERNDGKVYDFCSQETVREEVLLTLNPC
Experiment: In vitro lipase inhibitory activity (hydrolysis of p-nitrophenyl caprylate to p-nitrophenol, absorption at 405 nm)
Format: biochemical
Details: inhibition of lipase activity compared to control at the final concentration printed in the same row
Procedure: Lipase activity was determined by measuring the rate of hydrolysis of p-nitrophenyl caprylate to p-nitrophenol (yellow) and caprylate.
Phosphate buffer A (200 mM phosphate buffer with a pH 7) was prepared by mixing: 488 ml 200 mM Na2HPO4·H2O (17.5 gram/500 ml) with 296 ml 200 mM NaH2PO4·H2O (13.8 gram/500 ml) followed by adjustment of the pH. Substrate solution was prepared freshly by mixing: • a) 500 ml buffer B (200 mM phosphate buffer A pH 7 containing 0.1% (w/v) Triton x-100) and • b) 5.3 ml stock solution of the substrate (250 mM p-nitrophenyl caprylaat (pnp) in acetonitrile). […] The final concentration of pnp in the substrate solution is thus 2.66 mM pnp. Subsequently, the substrate solution was placed in an ultrasonic bath for exactly 3 minutes. […]
Samples were prepared by adding 40 mg of commercial extracts of Salvia material to 4 ml DMSO, incubating at room temperature for 15 minutes, followed by centrifugation to remove the insolubles. […] For each sample the capacity to inhibit lipase activity was determined.
25 µl of sample (25 µl DMSO for control) was added to 150µl substrate solution and incubated for 10 minutes at 37 °C. Subsequently 25 µl lipase solution was added and the p-nitrophenol formation was determined during a period of 10 minutes by measuring the absorption increase at 405 nm. […]

With `CCCCCCCCCCC[C@@H](C[C@@H]1OC(=O)[C@H]1CCCCCC)OC(=O)[C@H](CC(C)C)NC=O` [Orlistat] the “Inhibition (%)” value was 50%.
